Reference: publication PMC9652956, “The ovipositor cue indole inhibits animal host attraction in Aedes aegypti (Diptera: Culicidae) mosquitoes” (Parasites & Vectors, 2022)

Tests used:
[1] = target: T1, AaegOR8 (Aedes aegypti (R)-1-octen-3-ol receptor OR8) (Aedes aegypti, UniProt Q16MN0); experiment: two-electrode voltage clamp, Xenopus oocytes; baseline current shift under […] perfusion versus water-injected oocytes; type: cell-based
T1 construct: gene GPRor8; with AaegOrco
T1 sequence (Q16MN0 1-422): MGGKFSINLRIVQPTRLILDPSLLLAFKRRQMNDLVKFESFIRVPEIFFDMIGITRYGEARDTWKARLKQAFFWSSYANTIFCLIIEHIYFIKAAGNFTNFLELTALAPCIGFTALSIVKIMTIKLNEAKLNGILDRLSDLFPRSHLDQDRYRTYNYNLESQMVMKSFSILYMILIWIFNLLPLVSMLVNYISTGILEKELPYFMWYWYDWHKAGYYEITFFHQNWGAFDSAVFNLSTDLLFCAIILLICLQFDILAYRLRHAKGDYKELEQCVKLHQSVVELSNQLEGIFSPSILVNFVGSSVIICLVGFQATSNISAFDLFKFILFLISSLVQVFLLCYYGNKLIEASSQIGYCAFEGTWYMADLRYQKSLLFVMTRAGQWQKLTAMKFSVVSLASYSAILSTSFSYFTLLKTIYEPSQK
T1 sequence (Q178U6 1-478 partner): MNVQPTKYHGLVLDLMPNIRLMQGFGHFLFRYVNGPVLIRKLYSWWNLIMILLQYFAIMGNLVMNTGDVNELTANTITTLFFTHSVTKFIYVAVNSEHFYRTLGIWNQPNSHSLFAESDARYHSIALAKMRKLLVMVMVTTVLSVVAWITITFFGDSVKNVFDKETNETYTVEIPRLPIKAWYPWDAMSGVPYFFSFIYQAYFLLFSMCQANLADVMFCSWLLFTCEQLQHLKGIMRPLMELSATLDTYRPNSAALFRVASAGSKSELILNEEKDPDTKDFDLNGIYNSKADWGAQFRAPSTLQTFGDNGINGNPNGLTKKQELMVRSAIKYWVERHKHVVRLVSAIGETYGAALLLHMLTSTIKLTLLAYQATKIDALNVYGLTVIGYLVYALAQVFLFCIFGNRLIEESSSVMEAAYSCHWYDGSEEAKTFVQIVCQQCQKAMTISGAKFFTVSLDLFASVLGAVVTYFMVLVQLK

[2] = target: T1, AaegOR8 (Aedes aegypti (R)-1-octen-3-ol receptor OR8); experiment: two-electrode voltage clamp, Xenopus oocytes expressing AaegOR8-Orco; about […] inhibition at […]; not active on Orco alone; type: cell-based; conditions: read-out: % reduction at 10^-3 M

Compound	two-electrode voltage clamp, Xenopus oocytes; baseline current shift under 0.01 [1]	inhibition at 1000 µM [2] [%]
CCCCN(CCC(=O)OCC)C(C)=O [IR3535]	Indole and insect repellents (DEET, IR3535) increased the baseline current state of AaegOR8-Orco-injected oocytes	
CCN(CC)C(=O)c1cccc(C)c1 [DEET]	Indole and insect repellents (DEET, IR3535) increased the baseline current state of AaegOR8-Orco-injected oocytes	
c1ccc2[nH]ccc2c1 [indole]		~30
